This passage reports IC50 results from US7153855B2, “Pyrazolopyridinyl pyrimidine therapeutic compounds” (SmithKline Beecham Corporation, priority 2001, dated 2006).

The subject of the test is HSV-1. Kind of test: HSV-1 infection of Vero 76 cells, viral DNA detected by hybridization capture (chemiluminescence). It counts as cell-based. The conditions noted are these: Human alphaherpesvirus 1; HSV-1 in Vero 76 cells, MOI=0.001, compounds incubated 40–48 hours at 37° C.; read-out: IC50. From the text: In the following example, “MEM” means Minimal Essential Media; “FBS” means Fetal Bovine Serum; “NP40” and “Igepal” are detergents; “MOI” means Multiplicity of Infection; “NaOH” means sodium hydroxide; “MgCl2” means magnesium chloride; “dATP” means deoxyadenosine 5′ triphosphate; “dUTP” means deoxyuridine 5′ triphosphate; “dCTP” means dexoxycytidine 5′ triphosphate; “dGTP” means deoxyguanosine 5′ triphosphate; “GuSCN” means Guanidinium thiocyanate; “EDTA” means ethylenediamine tetraacetic acid; “TE” means Tris-EDTA; “SCC” means sodium chloride/sodium citrate; “APE” means a solution of ammonia acetate, ammonia phosphate, EDTA; “PBS” means phosphate buffered saline; and “HRP” means horseradish peroxidase.
Vero 76 cells were maintained in MEM with Earle's salts, L-glutamine, 8% FBS (Hyclone, A-1111-L) and 100 units/mL Penicillin-100 μg/mL Streptomycin. For assay conditions, FBS was reduced to 2%. Cells are seeded into 96-well tissue culture plates at a density of 5×10^4 cells/well after being incubated for 45 min at 37° C. in the presence of HSV-1 or HSV-2 (MOI=0.001). Test compounds are added to the wells and the plates are incubated at 37° C. for 40–48 hours. Cell lysates are prepared as follows: media was removed and replaced with 150 μL/well 0.2 N NaOH with 1% Igepal CA 630 or NP-40. Plates were incubated up to 14 days at room temperature in a humidified chamber to prevent evaporation.
For the detection probe, a gel-purified, digoxigenin-labeled, 710-bp PCR fragment of the HSV UL-15 sequence was utilized. PCR conditions included 0.5 μM primers, 180 μM dTTP, 20 μM dUTP-digoxigenin (Boehringer Mannheim 1558706), 200 μM each of dATP, dCTP, and dGTP, 1×PCR Buffer II (Perkin Elmer), 2.5 mM MgCl2, 0.025 units/μL of AmpliTaq Gold polymerase (Perkin Elmer), and 5 ng of gel-purified HSV DNA per 100 μL Extension conditions were 10 min at 95° C., followed by 30 cycles of 95° C. for 1 min, 55° C. for 30 sec, and 72° C. for 2 min. The amplification was completed with a 10-min incubation at 72° C. Primers were selected to amplify a 728 bp probe spanning a section of the HSV1 UL15 open reading frame (nucleotides 249–977). Single-stranded transcripts were purified with Promega M13 Wizard kits. The final product was mixed 1:1 with a mixture of 6 M GuSCN, 100 mM EDTA and 200 μg/mL herring sperm DNA and stored at 4° C.
The capture DNA plasmid (HSV UL13 region in pUC) was linearized by cutting with Xba I, denatured for 15 min at 95° C. and diluted immediately into Reacti-Bind DNA Coating Solution (Pierce, 17250, diluted 1:1 with TE buffer, pH 8) at 1 ng/μL 75 μL/well were added to Corning (#3922 or 9690) white 96-well plates and incubated at room temperature for at least 4 hrs before washing twice with 300 μL/well 0.2×SSC/0.05% Tween-20 (SSC/T buffer). The plates were then incubated overnight at room temperature with 150 μL/well 0.2 N NaOH, 1% IGEPAL and 10 μg/mL herring sperm DNA.
Twenty-seven (27) μL of cell lysate was combined with 45 μL of hybridization solution (final concentration: 3M GuSCN, 50 mM EDTA, 100 μg/ml salmon sperm DNA, 5×Denhardt's solution, 0.25×APE, and 5 ng of the digoxigenin-labeled detection probe). APE is 1.5 M NH4-acetate, 0.15 M NH4H2 phosphate, and 5 mM EDTA adjusted to pH 6.0. Mineral oil (50 μL) was added to prevent evaporation. The hybridization plates were incubated at 95° C. for 10 minutes to denature the DNA, then incubated at 42° C. overnight. The wells were washed 6× with 300 μL/well SSC/T buffer then incubated with 75 μL/well anti-digoxigenin-HRP-conjugated antibody (Boehringer Mannheim 1207733, 1:5000 in TE) for 30 min at room temperature. The wells were washed 6× with 300 μL/well with PBS/0.05% Tween-20 before 75 μL/well SuperSignal LBA substrate (Pierce) was added. The plates were incubated at room temperature for 30 minutes and chemiluminescence was measured in a Wallac Victor reader.
The following results were obtained for HSV-1.
One may read the IC50 as the concentration that inhibits the measured activity by half. Regarding `COc1ccc(-c2nn3c(NC4CCCC4)cccc3c2-c2ccnc(NC3CCCC3)n2)cc1` [Example 1, N-Cyclopentyl-3-[2-(cyclopentylamino)-4-pyrimidinyl]-2-(4-methoxyphenyl)-pyrazolo[1,5-a]pyridin-7-amine], the IC50 was determined as 0.3 µM.
With `COc1ccc(-c2nn3c(N4CCCC4)cccc3c2-c2ccnc(NC3CCCC3)n2)cc1` [Example 2, N-Cyclopentyl-4-[2-(4-methoxyphenyl)-7-(1-pyrrolidinyl)pyrazolo[1,5-a]pyridin-3-yl]-2-pyrimidinamine], the IC50 was determined as 0.6 µM.
Under `COc1ccc(-c2nn3c(N4CCCC4)cccc3c2-c2ccnc(N)n2)cc1` [Example 3, 4-[2-(4-Methoxyphenyl)-7-(1-pyrrolidinyl)pyrazolo[1,5-a]pyridin-3-yl]-2-pyrimidinamine] stands 5 µM; under `Oc1ccc(-c2nn3c(NC4CCCC4)cccc3c2-c2ccnc(NC3CCCC3)n2)cc1` [Example 4, 4-{7-(Cyclopentylamino)-3-[2-(cyclopentylamino)-4-pyrimidinyl]pyrazolo-[1,5-a]pyridin-2-yl}phenol], 1 µM.
For the molecule `Oc1ccc(-c2nn3c(N4CCCC4)cccc3c2-c2ccnc(NC3CCCC3)n2)cc1` [Example 5, 4-[3-[2-(Cyclopentylamino)-4-pyrimidinyl]-7-(1-pyrrolidinyl)pyrazolo[1,5-a]pyridin-2-yl]phenol], the IC50 amounted to 2 µM.
For the molecule `Nc1nccc(-c2c(-c3ccc(O)cc3)nn3c(N4CCCC4)cccc23)n1` [Example 6, 4-[3-(2-Amino-4-pyrimidinyl)-7-(1-pyrrolidinyl)pyrazolo[1,5-a]pyridin-2-yl]phenol], the IC50 worked out at 5 µM.
Under `C=CCOc1ccc(-c2nn3c(NC4CCCC4)cccc3c2-c2ccnc(NC3CCCC3)n2)cc1` [Example 7, 2-[4-(Allyloxy)phenyl]-N-cyclopentyl-3-[2-(cyclopentylamino)-4-pyrimidinyl]pyrazolo[1,5-a]pyridin-7-amine] stands 0.15 µM.
For the molecule `CCOC(=O)COc1ccc(-c2nn3c(NC4CCCC4)cccc3c2-c2ccnc(NC3CCCC3)n2)cc1` [Example 8, Ethyl (4-{7-(cyclopentylamino)-3-[2-(cyclopentylamino)-4-pyrimidinyl]-pyrazolo[1,5-a]pyridin-2-yl}phenoxy)acetate], the IC50 came to 3 µM.
With `CCCCOc1ccc(-c2nn3c(NC4CCCC4)cccc3c2-c2ccnc(NC3CCCC3)n2)cc1` [Example 9, 2-(4-Butoxyphenyl)-N-cyclopentyl-3-[2-(cyclopentylamino)-4-pyrimidinyl]-pyrazolo[1,5-a]pyridin-7-amine], the IC50 was 3 µM.
`CC(C)COc1ccc(-c2nn3c(NC4CCCC4)cccc3c2-c2ccnc(NC3CCCC3)n2)cc1` [Example 10, N-Cyclopentyl-3-[2-(cyclopentylamino)-4-pyrimidinyl]-2-(4-isobutoxyphenyl)pyrazolo [1,5-a]pyridin-7-amine]: the IC50 turned out to be 0.9 µM.
Take `c1cc(NC2CCCC2)n2nc(-c3ccc(OCC4CC4)cc3)c(-c3ccnc(NC4CCCC4)n3)c2c1` [Example 11, N-Cyclopentyl-3-[2-(cyclopentylamino)-4-pyrimidinyl]-2-[4-(cyclopropyl-methoxy)phenyl]pyrazolo[1,5-a]pyridin-7-amine]: the IC50 amounted to 0.3 µM.
Under `c1cc(NC2CCCC2)n2nc(-c3ccc(OCC4CCC4)cc3)c(-c3ccnc(NC4CCCC4)n3)c2c1` [Example 12, 2-[4-(Cyclobutylmethoxy)phenyl]-N-cyclopentyl-3-[2-(cyclopentylamino)-4-pyrimidinyl]pyrazolo[1,5-a]pyridin-7-amine] stands 2 µM; under `c1ccc(Oc2ccc(-c3nn4c(NC5CCCC5)cccc4c3-c3ccnc(NC4CCCC4)n3)cc2)cc1` [Example 13, N-Cyclopentyl-3-[2-(cyclopentylamino)-4-pyrimidinyl]-2-(4-phenoxyphenyl)pyrazolo[1,5-a]pyridin-7-amine], 1 µM.
Under `CCCCNc1nccc(-c2c(-c3ccc(-c4ccccc4)cc3)nn3c(NCCCC)cccc23)n1` [Example 15, 2-[1,1′-Biphenyl]-4-yl-N-butyl-3-[2-(butylamino)-4-pyrimidinyl]pyrazolo-[1,5-a]pyridin-7-amine] stands 1 µM.
With `CCCCNc1nccc(-c2c(-c3ccc(N)cc3)nn3c(NCCCC)cccc23)n1` [Example 16, N-{4-[2-(4-Aminophenyl)-7-(butylamino)pyrazolo[1,5-a]pyridin-3-yl]-2-pyrimidinyl}-N-butylamine], the IC50 turned out to be 1 µM.
For the molecule `CCCCNc1nccc(-c2c(-c3ccc(NC4CCCCC4)cc3)nn3c(NCCCC)cccc23)n1` [Example 17, N-Butyl-3-[2-(butylamino)-4-pyrimidinyl]-2-[4-(cyclohexylamino)phenyl]-pyrazolo[1,5-a]pyridin-7-amine], the IC50 amounted to 1.5 µM.
For the molecule `C=C(C)c1ccc(-c2nn3c(NCCCC)cccc3c2-c2ccnc(NCCCC)n2)cc1` [Example 18, N-Butyl-3-[2-(butylamino)-4-pyrimidinyl]-2-(4-isopropenylphenyl)-pyrazolo[1,5-a]pyridin-7-amine], the IC50 is 9 µM.
Turning to `CCCCNc1nccc(-c2c(-c3ccc(Nc4ccccc4)cc3)nn3c(NCCCC)cccc23)n1` [Example 19, 2-(4-Anilinophenyl)-N-butyl-3-[2-(butylamino)-4-pyrimidinyl]pyrazolo[1,5-a]pyridin-7-amine], the IC50 amounted to 0.5 µM.
Under `CCCCNc1nccc(-c2c(-c3ccc(Nc4ccccc4)cc3)nn3c(N(CCCC)c4ccccc4)cccc23)n1` [Example 20, 2-(4-Anilinophenyl)-N-butyl-3-[2-(butylamino)-4-pyrimidinyl]-N-phenylpyrazolo[1,5-a]pyridin-7-amine] stands 16 µM; under `CCCCNc1nccc(-c2c(-c3ccc(N(CC4CC4)CC4CC4)cc3)nn3c(NCCCC)cccc23)n1` [Example 21, 2-{4-[Bis(cyclopropylmethyl)amino]phenyl}-N-butyl-3-[2-(butylamino)-4-pyrimidinyl]pyrazolo[1,5-a]pyridin-7-amine], 15 µM; under `CCCCNc1nccc(-c2c(-c3ccc(NCC4CC4)cc3)nn3c(NCCCC)cccc23)n1` [Example 22, N-butyl-3-[2-(butylamino)-4-pyrimidinyl]-2-{4-[(cyclopropylmethyl)amino]phenyl}pyrazolo[1,5-a]pyridin-7-amine], 0.6 µM.
With `CCCCNc1nccc(-c2c(-c3ccc(N(C)C)cc3)nn3c(NCCCC)cccc23)n1` [Example 23, N-Butyl-3-[2-(butylamino)-4-pyrimidinyl]-2-[4-(dimethylamino)phenyl]-pyrazolo[1,5-a]pyridin-7-amine], the IC50 turned out to be 2 µM.
Take `Brc1ccccc1-c1nn2c(NC3CCCC3)cccc2c1-c1ccnc(NC2CCCC2)n1` [Example 24, 2-(2-Bromophenyl)-N-cyclopentyl-3-[2-(cyclopentylamino)-4-pyrimidinyl]pyrazolo[1,5-a]pyridin-7-amine]: the IC50 was 0.9 µM.
Under `Brc1cccc(-c2nn3c(NC4CCCC4)cccc3c2-c2ccnc(NC3CCCC3)n2)c1` [Example 25, 2-(3-Bromophenyl)-N-cyclopentyl-3-[2-(cyclopentylamino)-4-pyrimidinyl]pyrazolo[1,5-a]pyridin-7-amine] stands 0.2 µM.
